Laboratory results: the supplement of paper PMC11208160

assay: recombinant UMI read abundance after kanamycin selection (control-corrected) (log10(CPM+1)); higher = more efficient recombination; extreme values may be limits of the assay; sequences stand for … in AGTGCAGAGAAAATCGGCCAGTTTTCTCTGCCTGCAGTCCGCATGCCGTGGGACCCCTTGGGTTCTAACCTGTTGCCTAGATTTATGCAGCGGACTGCCTTTCTCCCAAAGTGATAAACCGG…AGGTTGGTTTCACT; site = the 11-nt donor
How it was run: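 Counts of recombinant UMIs were reported as log10(CPM+1). Before that, they were converted to CPM, averaged over replicates and scaled using control-derived factors. They came from PCR across the donor–target junction after Escherichia coli carrying the pair library and target plasmid was plated on IPTG (0.07 mM) plus kanamycin, or unselected, in two replicates each.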
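Note: IS621 bridge recombinase in Escherichia coli cells against a fixed T5 target plasmid.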

| Sequence | recombinant UMI read abundance (log10) |
| --- | --- |
| CAAATCTCATGGACCGGTTTTCCCGGTAATCCGTATTTGCA (site CAAATCTCTTG) | 1.85 |
| CAACAACCATGGACCGGTTTTCCCGGTAATCCGTATTTGAA (site CAACAACCTTT) | 0.102 |
| CAACACACATGGACCGGTTTTCCCGGTAATCCGTATTTGTG (site CAACACACTCA) | 0.834 |
| CAACGCTCATGGACCGGTTTTCCCGGTAATCCGTATTTGAA (site CAAAGCTCTTT) | 0.00291 |
| CAACGCTCATGGACCGGTTTTCCCGGTAATCCGTATTTGAA (site CAACGCTCTTT) | 2.06 |
| CAACGCTCATGGACCGGTTTTCCCGGTAATCCGTATTTGAA (site CAAGGCTCTTT) | 0.00387 |
| CAACGCTCATGGACCGGTTTTCCCGGTAATCCGTATTTGAA (site CAATGCTCTTT) | 0.0343 |
| CAACTCCCATGGACCGGTTTTCCCGGTAATCCGTATTTGCT (site CAAATCCCTAG) | 0.818 |
| CAACTCCCATGGACCGGTTTTCCCGGTAATCCGTATTTGCT (site CAACTCCCTAG) | 1.86 |
| CAACTCCCATGGACCGGTTTTCCCGGTAATCCGTATTTGCT (site CAAGTCCCTAG) | 0.00625 |
| CAACTCCCATGGACCGGTTTTCCCGGTAATCCGTATTTGCT (site CAATTCCCTAG) | 0.765 |
| CAACTTTCATGGACCGGTTTTCCCGGTAATCCGTATTTGGT (site CAACTTTCTAC) | 0.82 |
| CAAGATTCATGGACCGGTTTTCCCGGTAATCCGTATTTGTT (site AAAGATTCTAA) | 0 |
| CAAGATTCATGGACCGGTTTTCCCGGTAATCCGTATTTGTT (site CAAGATTCTAA) | 3.22 |
| CAAGATTCATGGACCGGTTTTCCCGGTAATCCGTATTTGTT (site GAAGATTCTAA) | 0 |
| CAAGATTCATGGACCGGTTTTCCCGGTAATCCGTATTTGTT (site TAAGATTCTAA) | 0.464 |

| Sequence | recombinant UMI read abundance (log10) |
| --- | --- |
| CAAGCGCCATGGACCGGTTTTCCCGGTAATCCGTATTTGCG (site CAAGCGCCTCA) | 0.0343 |
| CAAGCGCCATGGACCGGTTTTCCCGGTAATCCGTATTTGCG (site CAAGCGCCTCC) | 0.0171 |
| CAAGCGCCATGGACCGGTTTTCCCGGTAATCCGTATTTGCG (site CAAGCGCCTCG) | 2.05 |
| CAAGCGCCATGGACCGGTTTTCCCGGTAATCCGTATTTGCG (site CAAGCGCCTCT) | 0.00392 |
| CAAGCGCCATGGACCGGTTTTCCCGGTAATCCGTATTTGTC (site CAAGCGCCTAA) | 0.486 |
| CAAGCGCCATGGACCGGTTTTCCCGGTAATCCGTATTTGTC (site CAAGCGCCTCA) | 0.42 |
| CAAGCGCCATGGACCGGTTTTCCCGGTAATCCGTATTTGTC (site CAAGCGCCTGA) | 2.51 |
| CAAGCGCCATGGACCGGTTTTCCCGGTAATCCGTATTTGTC (site CAAGCGCCTTA) | 0.529 |
| CAAGCGGCATGGACCGGTTTTCCCGGTAATCCGTATTTGTG (site CAAGCGACTCA) | 1.37 |
| CAAGCGGCATGGACCGGTTTTCCCGGTAATCCGTATTTGTG (site CAAGCGCCTCA) | 0.00533 |
| CAAGCGGCATGGACCGGTTTTCCCGGTAATCCGTATTTGTG (site CAAGCGGCTCA) | 0.904 |
| CAAGCGGCATGGACCGGTTTTCCCGGTAATCCGTATTTGTG (site CAAGCGTCTCA) | 1.66 |
| CAAGTAACATGGACCGGTTTTCCCGGTAATCCGTATTTGGG (site CAAGTAACTCC) | 1.53 |
| CAAGTAACATGGACCGGTTTTCCCGGTAATCCGTATTTGGG (site CAAGTCACTCC) | 0.0125 |
| CAAGTAACATGGACCGGTTTTCCCGGTAATCCGTATTTGGG (site CAAGTGACTCC) | 0.0247 |
| CAAGTAACATGGACCGGTTTTCCCGGTAATCCGTATTTGGG (site CAAGTTACTCC) | 0.237 |
